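Step 1: Grow cells in 96-well plates. Step 2: Expose to compound for 48 hours at 5 concentrations. Step 3: Interpolate endpoints linearly; if unreached, use highest concentration. Here, GI50 denotes the concentration required for 50% inhibition of growth.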 The source made the active and inactive calls. No stated cut-off is given here; in the data, active = GI50 up to about 1.1 µM and inactive = higher.
What was measured:
Experiment in all cases: growth of human tumour cells (NCI), 48 h
DU-145 = system: DU-145
SF-539 = system: SF-539
HCC 2998 = system: HCC 2998
BT-549 = system: BT-549
T47D = system: T47D
ACHN = system: ACHN
Hs-578T = system: Hs-578T
COLO 205 = system: COLO 205
NCI-H460 = system: NCI-H460
HCT-116 = system: HCT-116
HT-29 = system: HT-29
NCI-H522 = system: NCI-H522
U-251 = system: U-251
CAKI-1 = system: CAKI-1
SW-620 = system: SW-620
M14 = system: M14
HOP-92 = system: HOP-92
NCI-H23 = system: NCI-H23
RXF 393 = system: RXF 393
CCRF-CEM = system: CCRF-CEM
SF-268 = system: SF-268
A549 = system: A549
NCI/ADR-RES = system: NCI/ADR-RES
OVCAR-5 = system: OVCAR-5
SF-295 = system: SF-295
HCT-15 = system: HCT-15
SNB-19 = system: SNB-19
OVCAR-4 = system: OVCAR-4
UACC-257 = system: UACC-257
SK-MEL-5 = system: SK-MEL-5
UACC-62 = system: UACC-62
LOX IMVI = system: LOX IMVI
IGROV-1 = system: IGROV-1
MDA-N = system: MDA-N
EKVX = system: EKVX
MOLT-4 = system: MOLT-4
UO-31 = system: UO-31
MCF7 = system: MCF7
SN12C = system: SN12C
A498 = system: A498
SR = system: SR
TK-10 = system: TK-10
HL-60 = system: HL-60
MDA-MB-231 = system: MDA-MB-231
SK-MEL-28 = system: SK-MEL-28
K562 = system: K562
OVCAR-8 = system: OVCAR-8
HOP-62 = system: HOP-62
MDA-MB-435 = system: MDA-MB-435
786-0 = system: 786-0
SK-MEL-2 = system: SK-MEL-2
PC-3 = system: PC-3
OVCAR-3 = system: OVCAR-3
Malme-3M = system: Malme-3M
SK-OV-3 = system: SK-OV-3
SNB-75 = system: SNB-75
KM12 = system: KM12
RPMI-8226 = system: RPMI-8226
NCI-H226 = system: NCI-H226

N#CCCSC1SC(=C2SC3=C(SCCS3)S2)SC1SCCC#N (stereo unspecified)
GI50 (DU-145): > 100 µM (inactive) | GI50 (SF-539): > 100 µM (inactive) | GI50 (HCC 2998): > 100 µM (inactive) | GI50 (BT-549): > 100 µM (inactive) | GI50 (T47D): > 100 µM (inactive) | GI50 (ACHN): > 100 µM (inactive) | GI50 (Hs-578T): > 100 µM (inactive) | GI50 (COLO 205): > 100 µM (inactive) | GI50 (NCI-H460): > 100 µM (inactive) | GI50 (HCT-116): > 100 µM (inactive) | GI50 (HT-29): > 100 µM (inactive) | GI50 (NCI-H522): > 100 µM (inactive) | GI50 (U-251): > 100 µM (inactive) | GI50 (CAKI-1): > 100 µM (inactive) | GI50 (SW-620): > 100 µM (inactive) | GI50 (M14): > 100 µM (inactive) | GI50 (HOP-92): > 100 µM (inactive) | GI50 (NCI-H23): > 100 µM (inactive) | GI50 (RXF 393): > 100 µM (inactive) | GI50 (CCRF-CEM): > 100 µM (inactive) | GI50 (SF-268): > 100 µM (inactive) | GI50 (A549): > 100 µM (inactive) | GI50 (NCI/ADR-RES): > 100 µM (inactive) | GI50 (OVCAR-5): > 100 µM (inactive) | GI50 (SF-295): > 100 µM (inactive) | GI50 (HCT-15): > 100 µM | GI50 (SNB-19): > 100 µM (inactive) | GI50 (OVCAR-4): > 100 µM (inactive) | GI50 (UACC-257): > 100 µM (inactive) | GI50 (SK-MEL-5): > 100 µM (inactive) | GI50 (UACC-62): > 100 µM (inactive) | GI50 (LOX IMVI): > 100 µM (inactive) | GI50 (IGROV-1): > 100 µM (inactive) | GI50 (MDA-N): > 100 µM (inactive) | GI50 (EKVX): > 100 µM (inactive) | GI50 (MOLT-4): > 100 µM (inactive) | GI50 (UO-31): > 100 µM (inactive) | GI50 (MCF7): > 100 µM (inactive) | GI50 (SN12C): > 100 µM (inactive) | GI50 (A498): > 100 µM (inactive) | GI50 (SR): > 100 µM (inactive) | GI50 (TK-10): > 100 µM (inactive) | GI50 (HL-60): > 100 µM (inactive) | GI50 (MDA-MB-231): > 100 µM (inactive) | GI50 (SK-MEL-28): > 100 µM (inactive) | GI50 (K562): > 100 µM (inactive) | GI50 (OVCAR-8): > 100 µM (inactive) | GI50 (HOP-62): > 100 µM (inactive) | GI50 (MDA-MB-435): > 100 µM (inactive) | GI50 (786-0): > 100 µM (inactive) | GI50 (SK-MEL-2): > 100 µM (inactive) | GI50 (PC-3): > 100 µM (inactive) | GI50 (OVCAR-3): > 100 µM (inactive)

CC(=O)OC(C)c1cc2c(s1)C(=O)c1sccc1C2=O (stereo unspecified)
GI50 (DU-145): 0.416 µM (active) | GI50 (SF-539): 0.268 µM (active) | GI50 (HCC 2998): 1.99 µM (inactive) | GI50 (BT-549): 0.7 µM (active) | GI50 (T47D): 2.58 µM (inactive) | GI50 (ACHN): 1.45 µM (inactive) | GI50 (Hs-578T): 0.807 µM (active) | GI50 (COLO 205): 1.89 µM (inactive) | GI50 (NCI-H460): 1.06 µM (active) | GI50 (Malme-3M): 0.21 µM (active) | GI50 (HCT-116): 1.46 µM (inactive) | GI50 (HT-29): 1.96 µM (inactive) | GI50 (NCI-H522): 1.27 µM (inactive) | GI50 (U-251): 0.944 µM (active) | GI50 (CAKI-1): 3.14 µM (inactive) | GI50 (SW-620): 0.714 µM (active) | GI50 (M14): 0.14 µM (active) | GI50 (SK-OV-3): 2.95 µM (inactive) | GI50 (HOP-92): 3.51 µM (inactive) | GI50 (NCI-H23): 0.221 µM (active) | GI50 (RXF 393): 1.56 µM (inactive) | GI50 (CCRF-CEM): 2.76 µM (inactive) | GI50 (SNB-75): 1.29 µM (inactive) | GI50 (SF-268): 0.989 µM (active) | GI50 (A549): 1.17 µM (inactive) | GI50 (NCI/ADR-RES): 1.71 µM (inactive) | GI50 (OVCAR-5): 1.73 µM (inactive) | GI50 (SF-295): 0.851 µM (active) | GI50 (HCT-15): 0.902 µM | GI50 (SNB-19): 1.29 µM (inactive) | GI50 (OVCAR-4): 1.96 µM (inactive) | GI50 (UACC-257): 0.215 µM (active) | GI50 (SK-MEL-5): 0.139 µM (active) | GI50 (KM12): 1.75 µM (inactive) | GI50 (LOX IMVI): 0.446 µM (active) | GI50 (IGROV-1): 2.02 µM (inactive) | GI50 (MDA-N): 0.0735 µM (active) | GI50 (EKVX): 2.03 µM (inactive) | GI50 (MOLT-4): 2.7 µM (inactive) | GI50 (UO-31): 1.55 µM (inactive) | GI50 (MCF7): 0.995 µM (active) | GI50 (SN12C): 0.542 µM (active) | GI50 (A498): 2.33 µM (inactive) | GI50 (SR): 0.51 µM (active) | GI50 (TK-10): 1.85 µM (inactive) | GI50 (HL-60): 1.74 µM (inactive) | GI50 (MDA-MB-231): 1.34 µM (inactive) | GI50 (SK-MEL-28): 0.916 µM (active) | GI50 (K562): 2.69 µM (inactive) | GI50 (RPMI-8226): 0.951 µM (active) | GI50 (NCI-H226): 2.04 µM (inactive) | GI50 (OVCAR-8): 1.81 µM (inactive) | GI50 (HOP-62): 1.03 µM (active) | GI50 (MDA-MB-435): 0.192 µM (active) | GI50 (786-0): 4.45 µM (inactive) | GI50 (SK-MEL-2): 0.504 µM (active) | GI50 (PC-3): 2.19 µM (inactive) | GI50 (OVCAR-3): 0.604 µM (active)
